Measurements taken from article PMC4303209, “A novel phosphatidylinositol 3-kinase (PI3K) inhibitor directs a potent FOXO-dependent, p53-independent cell cycle arrest phenotype characterized by the differential induction of a subset of FOXO-regulated genes” (Breast Cancer Research : BCR, 2014).

System: MCF-7 breast cancer cells
Experiment: Microarray gene expression analysis (Agilent whole human genome 4 x 44K; compound vs DMSO, LIMMA log2 fold change)
Type: cell-based
Conditions: cell cycle genes

With `Cn1ncc2c(N3CCOCC3)nc(-c3cccc(O)c3)nc21` [ETP-45658] the “TRIAP1 log2FC” value (Gene 51499) was -0.820, the “DTL log2FC” value (Gene 51514) was 0.044 and the “SIRT7 log2FC” value (Gene 51547) was 0.404. For the same compound, the “CINP log2FC” value (Gene 51550) was -0.074, the “GINS2 log2FC” value (Gene 51659) was -0.721 and the “NUP54 log2FC” value (Gene 53371) was 0.683. For the same compound, the “PELO log2FC” value (Gene 53918) was -0.595, the “WNT4 log2FC” value (Gene 54361) was -0.709 and the “ANLN log2FC” value (Gene 54443) was 0.699. The “FBXW5 log2FC” value (Gene 54461) was -0.054, the “FAM64A log2FC” value (Gene 54478) was 0.090 and the “DDX4 log2FC” value (Gene 54514) was -0.146. The “BTG4 log2FC” value (Gene 54766) was 0.249, the “NDE1 log2FC” value (Gene 54820) was 0.535 and the “NSUN2 log2FC” value (Gene 54888) was -0.186. The “TTC19 log2FC” value (Gene 54902) was 0.753, the “TXNL4B log2FC” value (Gene 54957) was 0.617 and the “BANP log2FC” value (Gene 54971) was -0.168. For the same compound, the “AURKAIP1 log2FC” value (Gene 54998) was -0.353, the “PHIP log2FC” value (Gene 55023) was 1.243 and the “USP47 log2FC” value (Gene 55031) was 0.762. For the same compound, the “ZWILCH log2FC” value (Gene 55055) was 0.619, the “PIWIL2 log2FC” value (Gene 55124) was -0.029 and the “CEP192 log2FC” value (Gene 55125) was 0.534. The “CDCA8 log2FC” value (Gene 55143) was -0.107, the “RFWD3 log2FC” value (Gene 55159) was -0.597 and the “CEP55 log2FC” value (Gene 55165) was 1.059. For the same compound, the “CENPQ log2FC” value (Gene 55166) was 0.796, the “RIF1 log2FC” value (Gene 55183) was 0.443 and the “ARL8B log2FC” value (Gene 55207) was 0.686. The “RCBTB1 log2FC” value (Gene 55213) was 0.799, the “CCDC87 log2FC” value (Gene 55231) was -0.125 and the “STEAP3 log2FC” value (Gene 55240) was -0.569. For the same compound, the “MNS1 log2FC” value (Gene 55329) was 0.765, the “MCM10 log2FC” value (Gene 55388) was -0.683 and the “SMPD3 log2FC” value (Gene 55512) was -0.280. The “TRIM36 log2FC” value (Gene 55521) was 0.705, the “RBM38 log2FC” value (Gene 55544) was -0.536 and the “PRR5 log2FC” value (Gene 55615) was 0.335. The “PRPF40A log2FC” value (Gene 55660) was 1.175, the “CEP72 log2FC” value (Gene 55722) was 0.344 and the “CHFR log2FC” value (Gene 55743) was -0.026. For the same compound, the “NUP133 log2FC” value (Gene 55746) was 0.409, the “CCAR1 log2FC” value (Gene 55749) was 0.836 and the “CDK5RAP2 log2FC” value (Gene 55755) was 0.516. For the same compound, the “PCID2 log2FC” value (Gene 55795) was 0.322, the “CENPN log2FC” value (Gene 55839) was 0.469 and the “PPP2R2D log2FC” value (Gene 55844) was 0.037. For the same compound, the “HDAC8 log2FC” value (Gene 55869) was -0.325, the “PBK log2FC” value (Gene 55872) was 0.522 and the “BIN3 log2FC” value (Gene 55909) was -0.746. For the same compound, the “ERBB2IP log2FC” value (Gene 55914) was 1.051, the “RCC2 log2FC” value (Gene 55920) was -0.248 and the “KLHL9 log2FC” value (Gene 55958) was 0.133. For the same compound, the “TEX11 log2FC” value (Gene 56159) was -0.066, the “TDRD1 log2FC” value (Gene 56165) was 0.246 and the “PARD3 log2FC” value (Gene 56288) was 0.418. For the same compound, the “RPRM log2FC” value (Gene 56475) was -0.078, the “CYP26B1 log2FC” value (Gene 56603) was 0.090 and the “SPIRE1 log2FC” value (Gene 56907) was 0.377. For the same compound, the “SMARCAD1 log2FC” value (Gene 56916) was 0.653, the “PRDM9 log2FC” value (Gene 56979) was 0.085 and the “KIF15 log2FC” value (Gene 56992) was 1.353. For the same compound, the “PDXP log2FC” value (Gene 57026) was -1.027, the “PCBP4 log2FC” value (Gene 57060) was -0.519 and the “CASC5 log2FC” value (Gene 57082) was 0.187. The “PCNP log2FC” value (Gene 57092) was 0.687, the “NUP107 log2FC” value (Gene 57122) was 0.862 and the “CHMP1B log2FC” value (Gene 57132) was 0.826. For the same compound, the “PAK7 log2FC” value (Gene 57144) was 0.396, the “CSRP2BP log2FC” value (Gene 57325) was 0.412 and the “TTYH1 log2FC” value (Gene 57348) was -0.189. For the same compound, the “BIRC6 log2FC” value (Gene 57448) was 0.155, the “MTA3 log2FC” value (Gene 57504) was 0.345 and the “HACE1 log2FC” value (Gene 57531) was 0.593. The “TAOK1 log2FC” value (Gene 57551) was 0.386, the “USP37 log2FC” value (Gene 57695) was 0.513 and the “FANCM log2FC” value (Gene 57697) was 0.486. For the same compound, the “CCNB1IP1 log2FC” value (Gene 57820) was 1.174, the “RHOU log2FC” value (Gene 58480) was 1.289 and the “OVOL2 log2FC” value (Gene 58495) was -0.133. For the same compound, the “AVPI1 log2FC” value (Gene 60370) was 0.391, the “RINT1 log2FC” value (Gene 60561) was 0.804 and the “FAM111A log2FC” value (Gene 63901) was 0.319. For the same compound, the “DMRTC2 log2FC” value (Gene 63946) was -0.047, the “CLSPN log2FC” value (Gene 63967) was 0.066 and the “TSPYL2 log2FC” value (Gene 64061) was -0.073. For the same compound, the “DPEP3 log2FC” value (Gene 64180) was -0.246, the “RFWD2 log2FC” value (Gene 64326) was 0.063 and the “CENPH log2FC” value (Gene 64946) was 0.860. For the same compound, the “MRPL41 log2FC” value (Gene 64975) was -0.545, the “INTS3 log2FC” value (Gene 65123) was -0.455 and the “PHACTR4 log2FC” value (Gene 65979) was 0.399. For the same compound, the “BOLL log2FC” value (Gene 66037) was -0.038, the “MIS12 log2FC” value (Gene 79003) was -0.429 and the “CENPM log2FC” value (Gene 79019) was -0.105. The “NUP37 log2FC” value (Gene 79023) was 0.431, the “ZNF655 log2FC” value (Gene 79027) was 0.893 and the “CENPO log2FC” value (Gene 79172) was -0.787. For the same compound, the “E2F8 log2FC” value (Gene 79733) was 0.114, the “FBXO31 log2FC” value (Gene 79791) was -0.232 and the “CSPP1 log2FC” value (Gene 79848) was 0.754. For the same compound, the “NEK11 log2FC” value (Gene 79858) was 0.568, the “MAP9 log2FC” value (Gene 79884) was 1.193 and the “NUP85 log2FC” value (Gene 79902) was 0.292. The “CEP76 log2FC” value (Gene 79959) was 0.323, the “CENPT log2FC” value (Gene 80152) was -0.175 and the “DBF4B log2FC” value (Gene 80174) was -0.579. For the same compound, the “CEP290 log2FC” value (Gene 80184) was 0.854, the “CEP63 log2FC” value (Gene 80254) was 0.741 and the “CDK5RAP3 log2FC” value (Gene 80279) was -0.091. The “CEP70 log2FC” value (Gene 80321) was 0.756, the “TUBB1 log2FC” value (Gene 81027) was -0.436 and the “NDEL1 log2FC” value (Gene 81565) was -0.111. The “FAM83D log2FC” value (Gene 81610) was -0.088, the “CAB39L log2FC” value (Gene 81617) was 0.106 and the “CCNL2 log2FC” value (Gene 81669) was 0.230. The “CABLES2 log2FC” value (Gene 81928) was -0.937, the “KIF18A log2FC” value (Gene 81930) was 1.204 and the “SESN2 log2FC” value (Gene 83667) was -0.701. The “SETDB2 log2FC” value (Gene 83852) was 1.285, the “GSG2 log2FC” value (Gene 83903) was -0.491 and the “RASSF4 log2FC” value (Gene 83937) was 0.185. For the same compound, the “MND1 log2FC” value (Gene 84057) was 0.497, the “HORMAD1 log2FC” value (Gene 84072) was 0.519 and the “USP44 log2FC” value (Gene 84101) was -0.061. For the same compound, the “CEP78 log2FC” value (Gene 84131) was 0.550, the “GINS4 log2FC” value (Gene 84296) was -0.398 and the “RAB11FIP4 log2FC” value (Gene 84440) was 0.575. For the same compound, the “LZTS2 log2FC” value (Gene 84445) was 0.831, the “BRSK1 log2FC” value (Gene 84446) was -0.038 and the “SPIRE2 log2FC” value (Gene 84501) was 0.454. The “PARD6B log2FC” value (Gene 84612) was 0.731, the “PPP1R9B log2FC” value (Gene 84687) was -0.425 and the “SPATA22 log2FC” value (Gene 84690) was -0.013. For the same compound, the “BEX2 log2FC” value (Gene 84707) was 0.736, the “PSRC1 log2FC” value (Gene 84722) was 0.114 and the “KLHL22 log2FC” value (Gene 84861) was 0.165. The “TBRG1 log2FC” value (Gene 84897) was 0.370, the “MASTL log2FC” value (Gene 84930) was 0.592 and the “LSM10 log2FC” value (Gene 84967) was -1.152. The “CCNB3 log2FC” value (Gene 85417) was 0.077, the “LRRCC1 log2FC” value (Gene 85444) was 0.773 and the “DIXDC1 log2FC” value (Gene 85458) was 0.062. The “PNPT1 log2FC” value (Gene 87178) was 0.445, the “LMLN log2FC” value (Gene 89782) was 0.783 and the “KLHL13 log2FC” value (Gene 90293) was 0.112. The “GADD45GIP1 log2FC” value (Gene 90480) was -0.402, the “SLFN11 log2FC” value (Gene 91607) was -0.432 and the “CENPL log2FC” value (Gene 91687) was 0.066. For the same compound, the “CABLES1 log2FC” value (Gene 91768) was 1.627, the “SYCE1 log2FC” value (Gene 93426) was -0.072 and the “ACTR8 log2FC” value (Gene 93973) was 0.366. The “TP53INP1 log2FC” value (Gene 94241) was 0.920, the “CDCA5 log2FC” value (Gene 113130) was 0.030 and the “TUBGCP5 log2FC” value (Gene 114791) was 0.520.
